Test results published in publication PMC10726358 (Journal of Medicinal Chemistry, 2023).

How the values were obtained:
[1] = biological target: T1, 5-HT3 (Homo sapiens, UniProt P46098); assay: Cross screening: 5-HT3 Agonist; assay type: biochemical
T1 construct: purchased GSK enhanced cross-screening panel (in-house)

[2] = biological target: BRD3 BD2 (Homo sapiens, UniProt Q15059); assay: BRD3 BD2 TR-FRET assay; assay type: binding
Method: (§1) The BRD4 BD1/BD2 TR-FRET assay had been used routinely for this optimization work, and in order to better understand the BET BD1 domain selectivity profile, 31 was tested in TR-FRET BRD2, BRD3, and BRDT assays.
(§2) All TR-FRET and hWB cytokine assays have been described previously.[54]

[3] = biological target: T2, OPRK1 (Homo sapiens, UniProt P41145); assay: Cross screening: OPRK1 Agonist; assay type: biochemical
T2 construct: purchased GSK enhanced cross-screening panel (in-house)
T2 sequence (P41145 whole entry): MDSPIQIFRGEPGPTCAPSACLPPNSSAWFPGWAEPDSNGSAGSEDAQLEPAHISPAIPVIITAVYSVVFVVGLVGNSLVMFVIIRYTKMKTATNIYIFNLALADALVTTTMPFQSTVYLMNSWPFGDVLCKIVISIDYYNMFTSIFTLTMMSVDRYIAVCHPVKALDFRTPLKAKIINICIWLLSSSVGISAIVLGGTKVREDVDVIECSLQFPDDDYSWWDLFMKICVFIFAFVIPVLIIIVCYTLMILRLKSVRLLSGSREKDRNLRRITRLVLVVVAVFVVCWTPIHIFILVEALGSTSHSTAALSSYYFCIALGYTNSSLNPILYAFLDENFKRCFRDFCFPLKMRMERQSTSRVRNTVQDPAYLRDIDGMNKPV

[4] = Artificial membrane permeability assay; conditions: PAMPA
Method: as §1
(§3) ChromatographicLogD at pH 7.4, artificial membrane permeability, CLND solubility, and CAD solubility were measured using published protocols.[55]

[5] = biological target: T3, MRGPRX2 (Homo sapiens, UniProt Q96LB1); assay: Cross screening: MRGPRX2 Agonist; assay type: biochemical
T3 construct: purchased GSK enhanced cross-screening panel (in-house)
T3 sequence (Q96LB1 whole entry): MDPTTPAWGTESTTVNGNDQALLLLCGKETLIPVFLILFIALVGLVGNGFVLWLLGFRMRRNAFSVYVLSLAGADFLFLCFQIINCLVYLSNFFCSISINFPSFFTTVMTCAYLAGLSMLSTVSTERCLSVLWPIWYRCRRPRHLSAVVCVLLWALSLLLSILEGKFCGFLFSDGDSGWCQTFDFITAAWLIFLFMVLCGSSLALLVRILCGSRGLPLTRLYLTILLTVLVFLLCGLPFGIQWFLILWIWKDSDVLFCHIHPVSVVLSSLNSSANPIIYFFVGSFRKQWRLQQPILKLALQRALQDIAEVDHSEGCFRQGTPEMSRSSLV

[6] = CAD aqueous solubility
Method: To understand cellular target engagement, 21 was tested in an LPS-stimulated hWB assay measuring inhibition of the inflammatory mediator MCP-1 secretion.
as §3

[7] = biological target: T4, BRD7 (Homo sapiens, UniProt Q9NPI1); assay: BROMOscan BRD7; assay type: binding
T4 construct: ≥2000-fold selectivity over all 20 non-BET bromodomains tested; purchased DiscoverX
T4 sequence (Q9NPI1 131-235 limits assumed): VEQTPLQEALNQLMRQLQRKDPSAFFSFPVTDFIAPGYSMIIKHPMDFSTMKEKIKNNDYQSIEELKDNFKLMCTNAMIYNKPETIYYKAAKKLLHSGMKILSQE
Method: as §1
(§4) [52] BROMOscan recombinant protein binding assays were carried out at DiscoverX. (accessed April 4, 2023).

[8] = biological target: Nav1.5 (Homo sapiens, UniProt Q14524); assay: Cross screening: Nav1.5 blocker
[9] = biological target: T5, Alpha 2C Adrenoceptor (Homo sapiens, UniProt P18825); assay: Cross screening: Alpha 2C Adrenoceptor agonist; assay type: biochemical
T5 construct: purchased GSK enhanced cross-screening panel (in-house)
T5 sequence (P18825 whole entry): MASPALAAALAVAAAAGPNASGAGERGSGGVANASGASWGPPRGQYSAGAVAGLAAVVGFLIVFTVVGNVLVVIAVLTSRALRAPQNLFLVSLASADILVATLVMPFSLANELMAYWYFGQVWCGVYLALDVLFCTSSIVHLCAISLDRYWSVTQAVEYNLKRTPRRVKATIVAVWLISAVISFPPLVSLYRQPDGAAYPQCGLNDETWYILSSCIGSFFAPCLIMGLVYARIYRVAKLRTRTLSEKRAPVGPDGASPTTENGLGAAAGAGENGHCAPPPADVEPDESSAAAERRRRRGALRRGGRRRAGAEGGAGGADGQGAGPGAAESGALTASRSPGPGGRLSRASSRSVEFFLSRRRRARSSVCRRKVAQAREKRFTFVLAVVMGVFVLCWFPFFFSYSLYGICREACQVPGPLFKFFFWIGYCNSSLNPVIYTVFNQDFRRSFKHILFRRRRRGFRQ

[10] = biological target: BRDT BD2 (Homo sapiens, UniProt Q58F21); assay: BRDT BD2 TR-FRET assay; assay type: binding
Method: as §1, §2

[11] = biological target: T6, Alpha 1 nAChR (Homo sapiens, UniProt P02708+P07510+Q07001); assay: Cross screening: Alpha 1 nAChR Agonist; assay type: biochemical
T6 construct: purchased GSK enhanced cross-screening panel (in-house)

[12] = test system: 12 multiplex human primary-cell-based assays; assay: BioMAP Diversity PLUS platform
Method: The X-axis lists the quantitative protein-based biomarker readouts measured in each system. The Y-axis represents a log-transformed ratio of the biomarker readouts for the drug-treated sample (n = 1) over vehicle controls (n ≥ 6). […] Biomarker key activities are described as modulated if these activities increase in some systems but decrease in others.
31 was added 1 h before stimulation of the cells and was present during the entire incubation period of the assays.

[13] = biological target: BRDT BD1 (Homo sapiens, UniProt Q58F21); assay: BROMOscan BRDT BD1; assay type: binding
Method: as §1, §4

[14] = Chromatographic LogD at pH 7.4
[15] = biological target: T7, NET (Homo sapiens, UniProt P23975); assay: Cross screening: NET blocker; assay type: biochemical
T7 construct: purchased GSK enhanced cross-screening panel (in-house)
T7 sequence (P23975 whole entry): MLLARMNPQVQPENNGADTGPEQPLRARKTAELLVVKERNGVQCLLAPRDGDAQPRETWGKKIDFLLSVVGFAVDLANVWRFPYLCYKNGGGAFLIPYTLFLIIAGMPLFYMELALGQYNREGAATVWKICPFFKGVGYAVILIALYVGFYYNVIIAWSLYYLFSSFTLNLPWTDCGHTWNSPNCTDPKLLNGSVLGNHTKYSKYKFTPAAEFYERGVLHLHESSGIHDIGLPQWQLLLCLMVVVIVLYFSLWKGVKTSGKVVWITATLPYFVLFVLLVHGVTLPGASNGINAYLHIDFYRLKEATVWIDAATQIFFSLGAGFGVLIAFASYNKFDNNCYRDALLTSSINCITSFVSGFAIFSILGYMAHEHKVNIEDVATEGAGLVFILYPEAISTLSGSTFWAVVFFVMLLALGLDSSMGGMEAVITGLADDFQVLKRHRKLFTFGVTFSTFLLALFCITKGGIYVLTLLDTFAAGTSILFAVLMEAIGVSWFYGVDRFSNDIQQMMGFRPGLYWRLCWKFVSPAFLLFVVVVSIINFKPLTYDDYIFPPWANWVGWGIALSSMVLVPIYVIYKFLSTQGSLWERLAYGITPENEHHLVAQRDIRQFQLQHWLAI

[16] = test system: Phospholipoidosis induction; assay: Cross screening: Phospholipoidosis induction
[17] = biological target: T8, BRD8 BD1 (Homo sapiens, UniProt Q9H0E9); assay: BROMOscan BRD8 BD1; assay type: binding
T8 construct: BRD8 BD1; purchased DiscoverX
T8 sequence (Q9H0E9 706-811 limits assumed): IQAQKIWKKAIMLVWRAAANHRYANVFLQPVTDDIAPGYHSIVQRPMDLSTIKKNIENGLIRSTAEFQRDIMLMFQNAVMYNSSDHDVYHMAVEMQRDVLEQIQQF
Method: as §1, §4

[18] = biological target: T9, 5-HT1B (Homo sapiens, UniProt P28222); assay: Cross screening: 5-HT1B Agonist; assay type: biochemical
T9 construct: purchased GSK enhanced cross-screening panel (in-house)

[19] = biological target: T10, LCK (Homo sapiens, UniProt P06239); assay: Cross screening: LCK inhibitor; assay type: biochemical
T10 construct: purchased GSK enhanced cross-screening panel (in-house)

[20] = biological target: T11, PBRM1 BD2 (Homo sapiens, UniProt Q86U86); assay: BROMOscan PBRM1 BD2; assay type: binding
T11 construct: PBRM1 BD2; purchased DiscoverX
T11 sequence (Q86U86 177-287 limits assumed): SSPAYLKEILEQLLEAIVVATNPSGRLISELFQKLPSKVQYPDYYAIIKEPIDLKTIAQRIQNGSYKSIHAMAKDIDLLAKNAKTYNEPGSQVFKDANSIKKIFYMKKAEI
Method: as §1, §4

[21] = biological target: T12, Dopamine 2 (D2) (Homo sapiens, UniProt P14416); assay: Cross screening: Dopamine 2 (D2) Antagonist; assay type: biochemical
T12 construct: purchased GSK enhanced cross-screening panel (in-house)
T12 sequence (P14416 whole entry): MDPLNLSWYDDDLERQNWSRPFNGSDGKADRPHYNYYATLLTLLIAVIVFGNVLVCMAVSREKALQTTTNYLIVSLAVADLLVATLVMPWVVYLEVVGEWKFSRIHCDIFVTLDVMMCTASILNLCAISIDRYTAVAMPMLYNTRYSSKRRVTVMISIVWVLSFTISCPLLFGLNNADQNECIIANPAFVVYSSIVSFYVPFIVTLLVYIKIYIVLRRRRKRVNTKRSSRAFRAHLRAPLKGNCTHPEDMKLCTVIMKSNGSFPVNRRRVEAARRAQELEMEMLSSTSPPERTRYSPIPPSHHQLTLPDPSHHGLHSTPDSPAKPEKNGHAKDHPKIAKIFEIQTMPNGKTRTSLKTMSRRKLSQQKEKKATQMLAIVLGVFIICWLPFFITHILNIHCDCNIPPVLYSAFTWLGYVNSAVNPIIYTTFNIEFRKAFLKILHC

[22] = biological target: T1, 5-HT3; assay: Cross screening: 5-HT3 antagonist; assay type: biochemical
[23] = test system: BRD4 BD2; assay: BRD4 BD2 TR-FRET assay; assay type: binding, human
Method: As a strategic decision, every compound synthesized across all of GSK’s bromodomain research projects was tested in both a BRD4 BD1 and a BRD4 BD2 TR-FRET assay as part of tier 1 data generation. […] LipE is a straightforward, yet powerful metric for medicinal chemistry teams to normalize potency relative to lipophilicity, a critical factor both for parameters of the human dose equation and also for promiscuity.[43],[44] To aid interpretation, diagonal lines representing different LipE values are shown, with the most desirable space found toward the top left-hand area of the plot representing molecules with the comparatively highest potency per unit of lipophilicity.
as §2

[24] = biological target: T13, PBRM1 BD5 (Homo sapiens, UniProt Q86U86); assay: BROMOscan PBRM1 BD5; assay type: binding
T13 construct: PBRM1 BD5; purchased DiscoverX
T13 sequence (Q86U86 653-763 limits assumed): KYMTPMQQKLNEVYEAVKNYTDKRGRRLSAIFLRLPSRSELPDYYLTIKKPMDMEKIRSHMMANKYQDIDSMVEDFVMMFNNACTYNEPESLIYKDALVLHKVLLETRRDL
Method: as §1, §4

[25] = test system: non-BET bromodomains; assay: BROMOscan non-BET bromodomain panel; assay type: binding, human
Method: as §1, §4

[26] = biological target: T14, 5-HT2C (Homo sapiens, UniProt P28335); assay: Cross screening: 5-HT2C Agonist; assay type: biochemical
T14 construct: purchased GSK enhanced cross-screening panel (in-house)
T14 sequence (P28335 33-458): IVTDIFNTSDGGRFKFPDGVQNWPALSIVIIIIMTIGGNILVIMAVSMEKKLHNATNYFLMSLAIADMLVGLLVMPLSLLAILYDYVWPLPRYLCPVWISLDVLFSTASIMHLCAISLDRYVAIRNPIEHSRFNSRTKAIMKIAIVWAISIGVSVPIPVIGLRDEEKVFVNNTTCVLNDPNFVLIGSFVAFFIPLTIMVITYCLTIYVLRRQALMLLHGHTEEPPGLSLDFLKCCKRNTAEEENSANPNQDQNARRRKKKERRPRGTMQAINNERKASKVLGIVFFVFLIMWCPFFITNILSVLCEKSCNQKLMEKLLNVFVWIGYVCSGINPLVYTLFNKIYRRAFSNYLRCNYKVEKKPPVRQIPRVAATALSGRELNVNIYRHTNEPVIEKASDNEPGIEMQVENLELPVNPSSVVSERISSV

[27] = biological target: T15, Adenosine A2a (Homo sapiens, UniProt P29274); assay: Cross screening: Adenosine A2a Human Agonist; assay type: biochemical
T15 construct: purchased GSK enhanced cross-screening panel (in-house)
T15 sequence (P29274 whole entry): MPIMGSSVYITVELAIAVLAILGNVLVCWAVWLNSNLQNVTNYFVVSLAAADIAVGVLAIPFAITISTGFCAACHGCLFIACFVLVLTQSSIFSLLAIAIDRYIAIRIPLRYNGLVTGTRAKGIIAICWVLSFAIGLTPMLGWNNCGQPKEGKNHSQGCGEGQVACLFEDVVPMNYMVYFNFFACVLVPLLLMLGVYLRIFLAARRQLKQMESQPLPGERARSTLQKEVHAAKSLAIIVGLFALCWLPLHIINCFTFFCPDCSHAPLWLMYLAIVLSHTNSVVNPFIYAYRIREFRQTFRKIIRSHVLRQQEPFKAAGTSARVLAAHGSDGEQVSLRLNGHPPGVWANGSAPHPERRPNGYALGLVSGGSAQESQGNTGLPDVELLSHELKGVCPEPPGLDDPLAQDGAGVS

[28] = biological target: T16, BRD8 BD2 (Homo sapiens, UniProt Q9H0E9); assay: BROMOscan BRD8 BD2; assay type: binding
T16 construct: BRD8 BD2; purchased DiscoverX
T16 sequence (Q9H0E9 1099-1207 limits assumed): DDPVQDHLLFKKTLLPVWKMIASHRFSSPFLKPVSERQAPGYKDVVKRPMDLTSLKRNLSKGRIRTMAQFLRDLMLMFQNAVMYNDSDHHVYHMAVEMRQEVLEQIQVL
Method: as §1, §4

[29] = biological target: T17, 5-HT2A (Homo sapiens, UniProt P28223); assay: Cross screening: 5-HT2A antagonist; assay type: biochemical
T17 construct: purchased GSK enhanced cross-screening panel (in-house)
T17 sequence (P28223 whole entry): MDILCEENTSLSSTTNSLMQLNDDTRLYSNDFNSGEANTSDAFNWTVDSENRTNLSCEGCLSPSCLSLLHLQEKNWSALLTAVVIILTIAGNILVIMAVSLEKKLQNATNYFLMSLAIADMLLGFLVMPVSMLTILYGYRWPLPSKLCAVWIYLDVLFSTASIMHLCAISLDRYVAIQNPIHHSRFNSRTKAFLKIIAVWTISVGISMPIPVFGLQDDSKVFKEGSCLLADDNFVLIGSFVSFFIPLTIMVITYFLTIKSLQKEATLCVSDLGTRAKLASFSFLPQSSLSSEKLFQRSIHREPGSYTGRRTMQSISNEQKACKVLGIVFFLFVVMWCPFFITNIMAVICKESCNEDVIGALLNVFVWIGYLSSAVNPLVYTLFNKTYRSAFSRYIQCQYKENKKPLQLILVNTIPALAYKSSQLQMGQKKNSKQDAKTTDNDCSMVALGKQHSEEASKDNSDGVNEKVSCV

[30] = biological target: T18, CECR2 (Homo sapiens, UniProt Q9BXF3); assay: BROMOscan CECR2; assay type: binding
T18 construct: ≥2000-fold selectivity over all 20 non-BET bromodomains tested; purchased DiscoverX
T18 sequence (Q9BXF3 434-538 limits assumed): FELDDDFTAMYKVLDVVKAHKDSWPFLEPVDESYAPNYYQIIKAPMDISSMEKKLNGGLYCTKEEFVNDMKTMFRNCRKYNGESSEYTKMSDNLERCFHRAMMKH
Method: as §1, §4

[31] = test system: BET BD1; assay: BET family BD1/BD2 profiling (TR-FRET, BROMOscan); assay type: binding, human
Method: as §1, §2, §4

T1 sequence (P46098 24-478): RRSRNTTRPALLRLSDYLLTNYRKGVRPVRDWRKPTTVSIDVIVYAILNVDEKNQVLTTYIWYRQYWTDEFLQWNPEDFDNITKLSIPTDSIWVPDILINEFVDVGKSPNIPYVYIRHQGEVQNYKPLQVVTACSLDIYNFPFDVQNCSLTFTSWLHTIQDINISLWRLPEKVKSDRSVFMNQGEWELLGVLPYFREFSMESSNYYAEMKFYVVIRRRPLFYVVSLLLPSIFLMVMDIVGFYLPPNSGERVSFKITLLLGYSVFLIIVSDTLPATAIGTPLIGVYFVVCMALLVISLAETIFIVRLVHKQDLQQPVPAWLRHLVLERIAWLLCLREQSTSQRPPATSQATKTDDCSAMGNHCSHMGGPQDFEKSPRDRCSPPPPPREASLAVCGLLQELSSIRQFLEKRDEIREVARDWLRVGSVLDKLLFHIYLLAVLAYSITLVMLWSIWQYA
Sequence of BRD3 BD2 (Q15059 306-415 limits assumed): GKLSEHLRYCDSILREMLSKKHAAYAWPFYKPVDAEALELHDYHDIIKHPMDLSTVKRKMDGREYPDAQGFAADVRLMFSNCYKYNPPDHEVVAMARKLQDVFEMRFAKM

Structure (SMILES): Cc1cc(-c2nc3ccccc3n2C[C@@H]2CCCN(C(=O)C3CCN(C(C)C)CC3)C2)cn(C)c1=O [Compound 31, (S)-5-(1-((1-(1-Isopropylpiperidine-4-carbonyl)piperidin-3-yl)methyl)-1H-benzo [d]imidazole-2-yl)-1,3-dimethylpyridin-2(1H)-one]
- pXC50 5-HT3 Agonist [1]: < 4.3
- BRD3 BD2 TR-FRET pIC50 [2]: 5.1
- pXC50 OPRK1 Agonist [3]: < 4.0
- Papp [4]: < 0.3 ×10⁻⁶ cm/s
- pXC50 MRGPRX2 Agonist [5]: < 4.0
- solubility [6]: ≥ 257 µg/mL
- Kd [7]: > 31.6 µM
- pXC50 Nav1.5 blocker [8]: < 4.3
- pXC50 Alpha 2C Adrenoceptor agonist [9]: < 4.0
- BRDT BD2 TR-FRET pIC50 [10]: 4.5
- pXC50 Alpha 1 nAChR Agonist [11]: < 4.2
- BioMAP immune-modulatory biomarker levels ([12]; 10 μM to 160 nM, MCP-1, IL-8, IL-1, IL-10, M-CSF, IL-6): decreases
- BioMAP antiproliferative effects ([12]; 10 μM to 160 nM, human primary T cells, coronary artery smooth muscle cells, endothelial cells, fibroblasts): antiproliferative effects
- BioMAP cytotoxicity ([12]; 10 μM, […], 630 nM, 160 nM): No cytotoxicity was observed
- BROMOscan pKd BRDT BD1 [13]: 8.1
- fold selectivity BRDT BD1 over BD2 ([13]; BROMOscan): 400 fold
- PFI (property forecast index) ([14]; chromLogDpH7.4 + number of aromatic rings): 4.7
- chromatographic logD ([14]; pH 7.4): 1.7
- pXC50 NET blocker [15]: < 4.0
- pXC50 Phospholipoidosis induction [16]: < 4
- Kd [17]: > 31.6 µM
- pXC50 5-HT1B Agonist [18]: < 4.0
- pXC50 LCK inhibitor [19]: < 4.5
- Kd [20]: > 31.6 µM
- pXC50 Dopamine 2 (D2) Antagonist [21]: < 4.0
- pXC50 5-HT3 antagonist [22]: < 4.3
- BRD4 BD2 FRET pIC50 [23]: 4.8
- Kd [24]: > 31.6 µM
- selectivity over all non-BET bromodomains and broader liability targets tested [25]: ≥ 1200 fold
- BROMOscan pKd 20 non-BET bromodomains ([25]; 20 non-BET bromodomains other than EP300): ≤4.8
- fold selectivity over 20 non-BET bromodomains ([25]; BROMOscan): ≥2000 fold
- pXC50 5-HT2C Agonist [26]: < 4.0
- pXC50 Adenosine A2a Human Agonist [27]: < 4.0
- Kd [28]: > 31.6 µM
- pXC50 5-HT2A antagonist [29]: < 4.0
- Kd [30]: > 31.6 µM
- BD1 domain selectivity over BD2 across the four isoforms ([31]; TR-FRET BRD2, BRD3, BRD4, BRDT): at least 400 fold
- BET BD1 domain selectivity ([31]; depending on protein and assay format): 300–1000 fold
